The values below come from publication PMC7153038, “Pharmacologic inhibition of RGD‐binding integrins ameliorates fibrosis and improves function following kidney injury” (Physiological Reports, 2020).

The target in one test is integrin αvβ5 (Homo sapiens, UniProt P06756+P18084). Kind of test: integrin αvβ5-mediated cell attachment to ligand. The class given is cell-based. The note with it: mean and SD, at least 3 independent assays; read-out: IC50, inhibition of αvβ5-mediated cell attachment. As for the experimental part: (§1) The RGD peptidomimetic CWHM‐12 was synthesized as described in detail previously (Henderson et al., 2013). A close structural analog of this compound with improved oral bioavailability, CWHM‐680, was also synthesized at Saint Louis University. Potency for the compounds in blocking cell attachment mediated by integrins αvβ3, αvβ5, and αvβ6 was measured as previously described (Henderson et al., 2013). Potency for blocking cell attachment mediated by integrins αvβ1, αvβ8, and α8β1 was measured using modifications of this method which are briefly summarized as follows: To assess CWHM‐12 and CWHM‐680 effects on cellular αvβ1 function, we varied its concentration in an assay measuring binding of HEK‐293 cells, which naturally express this integrin (Nagarajan et al., 2007), to the surface of 96‐well plates coated with purified recombinant human TGFβ‐1 latency‐associated peptide (R&D Systems). To assess the effect on cellular αvβ8 function, we performed the assay with the same LAP ligand but with HEK‐293 cells which had been stably transfected to overexpress this integrin. To assess the effect on cellular α8β1 function, we performed the assay using HEK‐293 cells, which had been stably transfected to overexpress this integrin and used purified recombinant mouse nephronectin as the immobilized ligand (R&D Systems). […]

The test system of the next test is integrin αIIbβ3. Set-up: method as in Henderson et al., 2013. The note with it: no significant activity; ref Henderson et al., 2013; read-out: activity against integrin αIIbβ3; cited from earlier work.
The target in another test is integrin αvβ3 (Homo sapiens, UniProt P05106+P06756). Kind of test: integrin αvβ3-mediated cell attachment to ligand. The note with it: mean and SD, at least 3 independent assays, read-out: IC50, inhibition of αvβ3-mediated cell attachment. The class given is cell-based. As for the experimental part:
as §1

For the next test, the target named is T1, integrin α8β1 (Homo sapiens, UniProt P05556+P53708).
T1 construct: expressed in transfected cells
Kind of test: integrin α8β1-mediated attachment of transfected HEK-293 cells to mouse nephronectin. The class given is cell-based. The note with it: mean and SD, at least 3 independent assays; transfected HEK-293, nephronectin; read-out: IC50, inhibition of α8β1-mediated cell attachment. Here is the method:
as §1

For a further test, the target named is T2, integrin α5β1 (Homo sapiens, UniProt P05556+P08648).
T2 construct: K562 cells, which naturally express this integrin; endogenous in cells; host or cells: K562
Kind of test: integrin α5β1-mediated attachment of K562 cells to human plasma fibronectin. The conditions noted are these: mean and SD, at least 3 independent assays, read-out: IC50, inhibition of α5β1-mediated cell attachment. The class given is cell-based.

The next test deals with T3, integrin αvβ8 (Homo sapiens, UniProt P06756+P26012).
T3 construct: expressed in transfected cells
Kind of test: integrin αvβ8-mediated attachment of transfected HEK-293 cells to LAP. The class given is cell-based. The conditions noted are these: mean and SD, at least 3 independent assays; transfected HEK-293, LAP ligand; read-out: IC50, inhibition of αvβ8-mediated cell attachment. Here is the method:
as §1

In test [1] the test system is non‐RGD‐binding integrins. Set-up: method as in Henderson et al., 2013. The note with it: ref Henderson et al., 2013; cited from earlier work.
The subject of test [2] is Collagen 1 protein in kidney. Kind of test: aristolochic acid kidney injury model, Collagen 1 Western blot. It counts as in vivo, mouse. The conditions noted are these: AA-injured, 100 mg/kg/day s.c. minipump. As for the experimental part:
Alzet osmotic minipumps (Cupertino, CA) were implanted subcutaneously in 8‐ to 10‐week‐old wild‐type male ICR outbred mice (Envigo) one day prior to induction of kidney injury to deliver vehicle (DMSO/H2O 1:1) or CWHM‐12 at a dose of 100 mg/kg per day. A single 5 mg/kg dose of aristolochic acid I sodium salt (Sigma‐Aldrich, A9451) in PBS was administered intraperitoneally to induce kidney injury, and mice were monitored daily for 27 days thereafter. Control (uninjured) mice were injected with an equal volume of PBS. Blood was obtained by maxillary vein puncture on days 0, 5 (peak injury), and 28 (study endpoint). For testing CWHM‐680, oral gavage (100 mg/kg per day) was started one day prior to injection of aristolochic acid I sodium salt and continued once daily until the study endpoint. Blood was obtained at days 0, 7, and 23 (study endpoint). […] Serum creatinine was measured by liquid chromatography–mass spectrometry (LC–MS/MS) at the University of Alabama O’Brien Center Bioanalytical Core. CWHM‐12 and CWHM‐680 concentrations were measured in plasma samples by liquid chromatography–tandem mass spectrometry (LC/MS/MS) using compound spiked into control plasma as a standard. All experiments were performed under protocols approved by the Institutional Animal Care and Use Committee at St. Louis University. […]
(Immunoblotting shows a protein as a band on a membrane.)

Read-outs that look alike come from different tables or passages of the source.

Sequence of integrin αvβ3 (P06756 31-889 limits assumed): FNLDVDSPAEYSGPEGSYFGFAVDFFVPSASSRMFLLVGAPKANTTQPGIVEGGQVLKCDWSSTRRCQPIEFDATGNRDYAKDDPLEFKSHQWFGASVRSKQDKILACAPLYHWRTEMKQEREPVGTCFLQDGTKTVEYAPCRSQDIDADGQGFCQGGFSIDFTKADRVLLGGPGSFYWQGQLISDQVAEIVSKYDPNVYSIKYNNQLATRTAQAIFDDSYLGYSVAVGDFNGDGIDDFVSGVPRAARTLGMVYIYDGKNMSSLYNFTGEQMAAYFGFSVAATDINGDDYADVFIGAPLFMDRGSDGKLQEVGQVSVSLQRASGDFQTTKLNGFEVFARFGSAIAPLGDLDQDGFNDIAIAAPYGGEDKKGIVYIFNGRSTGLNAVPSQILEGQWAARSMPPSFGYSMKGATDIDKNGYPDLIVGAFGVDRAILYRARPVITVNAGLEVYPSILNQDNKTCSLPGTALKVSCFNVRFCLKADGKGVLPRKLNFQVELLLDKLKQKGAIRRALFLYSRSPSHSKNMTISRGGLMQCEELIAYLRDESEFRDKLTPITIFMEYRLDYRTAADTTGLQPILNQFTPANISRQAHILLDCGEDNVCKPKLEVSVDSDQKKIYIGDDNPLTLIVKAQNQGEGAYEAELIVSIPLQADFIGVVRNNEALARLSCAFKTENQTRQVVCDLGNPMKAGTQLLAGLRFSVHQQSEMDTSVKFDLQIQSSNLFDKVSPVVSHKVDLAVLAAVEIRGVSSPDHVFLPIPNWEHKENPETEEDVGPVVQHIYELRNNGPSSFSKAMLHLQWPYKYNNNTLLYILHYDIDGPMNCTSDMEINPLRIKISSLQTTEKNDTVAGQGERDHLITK
Sequence of integrin αvβ3 (P06756 891-1048 partner limits assumed): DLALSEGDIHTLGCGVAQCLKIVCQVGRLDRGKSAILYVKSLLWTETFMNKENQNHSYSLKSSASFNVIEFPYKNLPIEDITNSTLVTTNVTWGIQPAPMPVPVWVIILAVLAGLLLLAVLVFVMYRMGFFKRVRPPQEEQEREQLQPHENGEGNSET
Sequence of integrin αvβ3 (P05106 27-788): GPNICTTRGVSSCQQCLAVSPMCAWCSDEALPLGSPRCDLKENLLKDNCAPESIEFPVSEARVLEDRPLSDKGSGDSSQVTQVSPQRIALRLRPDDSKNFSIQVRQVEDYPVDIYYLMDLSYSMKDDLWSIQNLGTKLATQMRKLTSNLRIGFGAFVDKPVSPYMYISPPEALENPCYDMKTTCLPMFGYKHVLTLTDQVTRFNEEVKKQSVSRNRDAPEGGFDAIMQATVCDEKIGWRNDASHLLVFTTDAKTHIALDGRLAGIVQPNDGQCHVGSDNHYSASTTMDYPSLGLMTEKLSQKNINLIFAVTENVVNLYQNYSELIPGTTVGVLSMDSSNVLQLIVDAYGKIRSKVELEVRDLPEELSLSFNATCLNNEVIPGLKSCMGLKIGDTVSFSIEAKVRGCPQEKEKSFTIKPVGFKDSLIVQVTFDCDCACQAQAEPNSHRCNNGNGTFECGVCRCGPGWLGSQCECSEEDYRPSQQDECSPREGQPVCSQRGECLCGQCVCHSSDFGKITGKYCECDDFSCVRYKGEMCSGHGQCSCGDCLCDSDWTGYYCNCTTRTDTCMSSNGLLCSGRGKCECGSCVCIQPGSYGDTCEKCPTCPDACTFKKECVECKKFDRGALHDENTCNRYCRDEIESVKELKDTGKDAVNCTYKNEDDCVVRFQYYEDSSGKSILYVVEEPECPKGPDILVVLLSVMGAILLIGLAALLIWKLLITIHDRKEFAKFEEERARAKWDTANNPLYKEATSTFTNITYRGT
T1 sequence (P53708 39-906 limits assumed): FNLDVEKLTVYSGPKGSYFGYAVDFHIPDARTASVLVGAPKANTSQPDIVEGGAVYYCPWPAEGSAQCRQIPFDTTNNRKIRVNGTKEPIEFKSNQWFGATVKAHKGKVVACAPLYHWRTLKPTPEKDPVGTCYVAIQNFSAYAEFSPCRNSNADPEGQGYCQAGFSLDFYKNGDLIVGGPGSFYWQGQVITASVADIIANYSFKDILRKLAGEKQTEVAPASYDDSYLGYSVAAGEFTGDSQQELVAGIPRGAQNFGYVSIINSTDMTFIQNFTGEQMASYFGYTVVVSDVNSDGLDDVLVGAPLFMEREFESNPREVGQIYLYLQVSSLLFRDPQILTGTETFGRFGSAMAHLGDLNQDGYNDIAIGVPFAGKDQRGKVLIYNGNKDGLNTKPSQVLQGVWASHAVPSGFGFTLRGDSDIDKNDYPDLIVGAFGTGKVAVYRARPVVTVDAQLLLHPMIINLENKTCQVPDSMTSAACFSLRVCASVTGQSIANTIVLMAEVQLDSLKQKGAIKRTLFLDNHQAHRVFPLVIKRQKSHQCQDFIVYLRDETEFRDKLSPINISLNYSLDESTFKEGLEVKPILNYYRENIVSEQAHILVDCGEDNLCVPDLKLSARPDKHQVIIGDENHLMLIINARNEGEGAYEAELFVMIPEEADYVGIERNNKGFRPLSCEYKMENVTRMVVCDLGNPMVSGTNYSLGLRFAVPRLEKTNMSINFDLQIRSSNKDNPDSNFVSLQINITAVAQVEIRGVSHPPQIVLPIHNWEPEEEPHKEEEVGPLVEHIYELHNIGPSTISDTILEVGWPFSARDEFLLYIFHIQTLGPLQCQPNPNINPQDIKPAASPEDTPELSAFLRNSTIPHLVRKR
T1 sequence (P53708 907-1063 partner limits assumed): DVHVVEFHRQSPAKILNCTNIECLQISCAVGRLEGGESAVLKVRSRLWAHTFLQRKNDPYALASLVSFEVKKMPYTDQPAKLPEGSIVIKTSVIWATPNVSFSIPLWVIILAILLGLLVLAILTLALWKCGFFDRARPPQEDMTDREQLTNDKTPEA
T1 sequence (P05556 21-798): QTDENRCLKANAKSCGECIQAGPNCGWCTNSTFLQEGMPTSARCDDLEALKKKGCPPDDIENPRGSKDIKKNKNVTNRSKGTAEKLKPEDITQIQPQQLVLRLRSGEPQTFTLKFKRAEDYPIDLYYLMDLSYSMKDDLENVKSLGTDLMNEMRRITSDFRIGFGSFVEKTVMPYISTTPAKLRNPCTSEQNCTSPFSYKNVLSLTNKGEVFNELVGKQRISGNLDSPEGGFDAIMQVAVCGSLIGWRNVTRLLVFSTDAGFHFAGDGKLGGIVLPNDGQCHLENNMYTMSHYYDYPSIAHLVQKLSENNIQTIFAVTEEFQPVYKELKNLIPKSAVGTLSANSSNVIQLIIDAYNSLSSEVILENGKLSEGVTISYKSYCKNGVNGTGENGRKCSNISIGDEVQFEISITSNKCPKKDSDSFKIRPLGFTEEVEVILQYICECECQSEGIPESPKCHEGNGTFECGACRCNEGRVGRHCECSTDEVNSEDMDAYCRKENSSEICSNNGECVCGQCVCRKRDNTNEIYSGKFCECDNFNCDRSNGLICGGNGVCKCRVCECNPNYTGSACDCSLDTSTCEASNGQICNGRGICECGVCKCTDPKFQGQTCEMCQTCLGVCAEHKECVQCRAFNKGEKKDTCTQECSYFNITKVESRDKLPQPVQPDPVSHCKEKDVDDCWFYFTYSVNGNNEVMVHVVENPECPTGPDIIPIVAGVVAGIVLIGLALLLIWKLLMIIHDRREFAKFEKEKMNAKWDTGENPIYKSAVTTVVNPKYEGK
T2 sequence (P08648 42-894 limits assumed): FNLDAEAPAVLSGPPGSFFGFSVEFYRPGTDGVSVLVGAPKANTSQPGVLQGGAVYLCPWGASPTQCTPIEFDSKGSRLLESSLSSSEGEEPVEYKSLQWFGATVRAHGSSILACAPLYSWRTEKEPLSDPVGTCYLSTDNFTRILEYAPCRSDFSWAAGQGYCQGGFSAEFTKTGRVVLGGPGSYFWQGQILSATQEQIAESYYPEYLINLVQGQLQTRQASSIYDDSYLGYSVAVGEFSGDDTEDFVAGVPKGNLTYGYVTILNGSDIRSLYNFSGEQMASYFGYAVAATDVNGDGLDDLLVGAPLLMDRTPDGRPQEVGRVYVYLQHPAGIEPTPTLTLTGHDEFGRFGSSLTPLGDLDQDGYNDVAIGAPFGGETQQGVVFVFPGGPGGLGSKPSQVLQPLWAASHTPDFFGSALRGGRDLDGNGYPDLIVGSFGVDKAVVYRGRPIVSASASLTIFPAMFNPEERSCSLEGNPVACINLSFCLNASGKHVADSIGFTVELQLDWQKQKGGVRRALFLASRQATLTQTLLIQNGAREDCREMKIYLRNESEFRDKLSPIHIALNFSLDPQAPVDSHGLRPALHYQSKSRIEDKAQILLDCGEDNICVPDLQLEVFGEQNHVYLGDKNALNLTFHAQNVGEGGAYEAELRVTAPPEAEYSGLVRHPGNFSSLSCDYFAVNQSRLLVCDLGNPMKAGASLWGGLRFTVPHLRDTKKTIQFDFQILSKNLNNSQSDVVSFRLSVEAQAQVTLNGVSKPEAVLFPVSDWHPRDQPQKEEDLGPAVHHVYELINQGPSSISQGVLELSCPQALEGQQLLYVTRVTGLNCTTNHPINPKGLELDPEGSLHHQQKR
T2 sequence (P08648 895-1049 partner limits assumed): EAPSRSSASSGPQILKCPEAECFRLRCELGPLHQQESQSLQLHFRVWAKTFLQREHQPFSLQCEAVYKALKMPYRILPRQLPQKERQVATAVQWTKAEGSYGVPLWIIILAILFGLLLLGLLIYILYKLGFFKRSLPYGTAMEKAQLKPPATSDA
T2 sequence (P05556 21-798): as the sequence (P05556 21-798) above

Turning to `CC(C)(C)c1cc(Br)cc([C@H](CC(=O)O)NC(=O)CNC(=O)c2cc(O)cc(NC3=NCC(O)CN3)c2)c1` (stereo partly shown) [CWHM‐12], the IC50 at integrin αvβ5 is 47 ± 26 nM; in the test with integrin αIIbβ3, above 5000 nM; at integrin αvβ3 (listed as CWHM−12), 0.47 ± 0.45 nM; on integrin αvβ3 it was below 1 nM; on integrin α8β1 it was 35 ± 16 nM; at integrin α5β1, 8 ± 3.9 nM. The IC50 on integrin αvβ8 amounted to 5.8 ± 2.3 nM. In addition, the “effect on ligand binding by non‐RGD‐binding integrins” value in test [1] was “nor does it affect ligand binding”. Besides, in test [2] (day 27), the “Collagen 1 protein reduction by Western blot compared with vehicle” value is reported as “threefold”. For the same compound, in test [2] (vehicle 2.14 ± 0.39), the “Collagen 1 densitometry normalized to HDAC2” value was found to be 0.719 ± 0.13 arbitrary units.
